Reference: patent US20070078263A1, “BIARYL SUBSTITUTED HETEROCYCLE INHIBITORS OF LTA4H FOR TREATING INFLAMMATION” (deCODE Chemistry, Inc., priority 2005, published 2007)
Where a name gives a salt, the structure may show the parent alone. Read-outs that look alike come from different tables or passages of the source.

What was measured:
[1] = molecular target: T1, human LTA4 hydrolase (Homo sapiens, UniProt P09960); test: In vitro assay testing inhibitory activity against purified recombinant human LTA4 hydrolase (LTB4 formed, LC-MS/MS); format: biochemical;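 also: 200 nM enzyme preincubated 10 min at room temperature with serial inhibitor dilutions in pH 8.0 Tris buffer with BSA and 10% DMSO, then 2 µM LTA4 added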
T1 construct: A human LTA4 hydrolase full-length cDNA clone (NM 000895) was purchased; His tag (6xHis of vector pDEST17); made in house; host or cells: Escherichia coli BL21-AI
T1 sequence (P09960 1-611): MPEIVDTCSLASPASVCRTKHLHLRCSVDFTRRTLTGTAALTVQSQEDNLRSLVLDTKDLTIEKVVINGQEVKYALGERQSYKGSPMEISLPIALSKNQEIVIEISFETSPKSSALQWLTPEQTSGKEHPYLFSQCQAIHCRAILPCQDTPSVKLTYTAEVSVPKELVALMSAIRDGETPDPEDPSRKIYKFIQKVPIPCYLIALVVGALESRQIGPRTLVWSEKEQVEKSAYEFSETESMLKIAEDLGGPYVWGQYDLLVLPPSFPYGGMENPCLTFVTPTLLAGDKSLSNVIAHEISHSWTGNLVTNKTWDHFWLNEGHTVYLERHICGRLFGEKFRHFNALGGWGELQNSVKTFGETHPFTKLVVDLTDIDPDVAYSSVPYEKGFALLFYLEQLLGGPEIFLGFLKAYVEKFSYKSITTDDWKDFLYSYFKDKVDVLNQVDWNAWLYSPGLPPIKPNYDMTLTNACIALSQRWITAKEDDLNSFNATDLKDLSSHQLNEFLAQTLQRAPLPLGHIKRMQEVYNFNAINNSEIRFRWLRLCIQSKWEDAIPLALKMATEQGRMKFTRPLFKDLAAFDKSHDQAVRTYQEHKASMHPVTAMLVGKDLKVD
Description: (1) In vitro assay testing inhibitory activity against purified recombinant human LTA4 hydroase. […] The gene was amplified by polymerase chain reaction and transferred via pDONR201 into the bacterial expression vector pDEST17 by recombination (both plasmids from Invitrogen, Carlsbad, Calif.). The resulting construct was transformed into Escherichia coli BL21-AI (Invitrogen), and expression was induced by chemical induction with arabinose. The recombinant enzyme was purified by chromatography on an FPLC system (Amersham Biosciences, Uppsala, Sweden) using immobilized metal affinity chromatography (Ni-NTA Superflow, Qiagen, Hilden, Germany) and anion exchange chromatography (MonoQ HR 10/10, Amersham Biosciences).
The compounds of the invention were incubated in a series of dilutions with 200 nM of recombinant enzyme in assay buffer (100 mM Tris-HCl, 100 mM NaCl, 5 mg/ml fatty-acid free BSA, 10% DMSO, pH 8.0) for 10 min at room temperature to allow binding between LTA4 hydrolase and the inhibitors. LTA4 was prepared by alkaline hydrolysis of LTA4 methyl ester (Biomol, Plymouth Meeting, Pa., or Cayman Chemicals, Ann Arbor, Mich.). A solution of 10 μg of the ester was dried under a nitrogen stream and redissolved in 60 μl of a solution of 80% acetone and 20% 0.25 M NaOH. After incubation for 40 min at room temperature the resulting approximately 500 μM tock of LTA4 was kept at −80° C. for no more than a few days prior to use.
Immediately before the assay, LTA4 was diluted to a concentration of 10 μM in assay buffer (without DMSO) and added to the reaction mixture to a final concentration of 2 μM to initiate the enzyme reaction. […] The samples were then kept at 4° C. overnight to complete protein precipitation and centrifuged for 15 min at 1800 g.

[2] = system: human whole blood; test: Ex vivo assay testing inhibitory activity in human whole blood after stimulation with calcium ionophore (LTB4 ELISA); format: cell-based; details: Ionomycin 20 μM, read-out: hWBIC50;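 also: heparinized human blood preincubated 15 min at 37 °C with compound, then ionomycin-stimulated for 30 min, LTB4 in plasma supernatant quantified by ELISA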
Protocol: (2) Ex vivo assay testing inhibitory activity in human whole blood after stimulation with calcium ionophor.
Human blood was collected in heparin-containing Vacutainer tubes. […] Then 4 μl of a series of compound dilutions (in DMSO) were added, followed by a 15 min incubation at 37° C. with gentle shaking. After that, blood samples were stimulated by adding Ionomycin (Calbiochem) to a final concentration of 20 μM. After another incubation at 37° C. for 30 min, samples were centrifuged for 5 min at 1800 g and 4° C. Supernatants were taken and LTB4 concentrations were determined using a commercially available enzyme-linked immunosobentassay (R&D Systems, Minneapolis, Minn.) according to the manufacturer's instructions.

[3] = recombinant human LTA4 hydrolase 200 nM, LTA4 2 μM, read-out: AvgIC50

| IC50 [1, 3] | IC50 [2] | Structure (SMILES) | IC50 [1] |
| --- | --- | --- | --- |
| < 5 µM | < 5 µM | O=C(O)CCCN1CCC[C@@H]1COc1ccc(Oc2ccc(C(F)(F)F)cc2)cc1 [Example 30, (R)-2-[4-(4-trifluoromethyl-phenoxy)-phenoxymethyl]-pyrrolidine-1-yl}butyric acid sodium salt] | – |
| < 5 µM | < 5 µM | CS(=O)(=O)NCCCN1CCC[C@H]1COc1ccc(Oc2ccc(Cl)cc2)cc1 [Example 39, N-(3-{(S)-2-[4-(4-Chloro-phenoxy)-phenoxymethyl]-pyrrolidin-1-yl}-propyl)-methanesulfonamide HCl] | – |
| < 5 µM | < 5 µM | c1ccc(Oc2ccc(NC[C@H]3CCCN3)cc2)cc1 [Example 42, (4-Phenoxy-phenyl)-(R)-1-pyrrolidin-2-ylmethyl-amine] | – |
| < 5 µM | < 5 µM | Fc1ccc(Oc2ccc(OC[C@H]3CCCN3)cc2)cc1 [Example 49, (R)-2-[4-(4-Fluoro-phenoxy)-phenoxymethyl]-pyrrolidine] | – |
| < 5 µM | < 5 µM | c1ccc(Oc2ccc(OC[C@H]3CCCCN3)cc2)cc1 [Example 50, (R)-2-(4-Phenoxy-phenoxymethyl)-piperidine hydrochloride] | – |
| < 5 µM | < 5 µM | c1ccc(Cc2ccc(OC[C@H]3CCCCN3)cc2)cc1 [Example 51, (R)-2-(4-Benzyl-phenoxymethyl)-piperidine hydrochloride] | – |
| < 5 µM | < 5 µM | c1ccc(Oc2ccc(OC[C@@H]3CCCCN3)cc2)cc1 [Example 52, (S)-2-(4-Phenoxy-phenoxymethyl)-piperidine hydrochloride] | – |
| < 5 µM | < 5 µM | FC(F)(F)c1ccc(Oc2ccc(OC[C@H]3CCCCN3)cc2)cc1 [Example 55, (R)-2-[4-(4-Trifluoromethyl-phenoxy)-phenoxymethyl]-piperidine hydrochloride] | – |
| < 5 µM | < 5 µM | Clc1ccc(Oc2ccc(OC[C@@H]3CCCCN3)cc2)cc1 [Example 56, (S)-2-[4-(4-Chloro-phenoxy)-phenoxymethyl]-piperidine hydrochloride] | – |
| < 5 µM | < 5 µM | Fc1ccc(Oc2ccc(OC[C@@H]3CCCCN3)cc2)cc1 [Example 57, (S)-2-[4-(4-Fluoro-phenoxy)-phenoxymethyl]-piperidine hydrochloride] | – |
| < 5 µM | < 5 µM | COC(=O)CCCN1CCCC[C@H]1COc1ccc(Oc2ccc(Cl)cc2)cc1 [Example 60, 4-{(S)-2-[4-(4-Chloro-phenoxy)-phenoxymethyl]-piperidin-1-yl}-butyric acid methyl ester] | – |
| < 5 µM | < 5 µM | Clc1ccc(Cc2ccc(OC[C@@H]3CCCN3)cc2)cc1 [Example 64, (S)-2-[4-(4-Chloro-benzyl)-phenoxymethyl]-pyrrolidine hydrochloride] | – |
| < 5 µM | 5 to 20 µM | O=C(O)CCC[N+]1([O-])CCC[C@H]1COc1ccc(Oc2ccc(Cl)cc2)cc1 (stereo partly drawn) [Example 70, 4-{(S)-2-[4-(4-Chloro-phenoxy)-phenoxymethyl]-1-hydroxy-pyrrolidin-1-yl}-butyric acid] | – |
| < 5 µM | < 5 µM | c1cncc(-c2ccc(Oc3ccc(OC[C@H]4CCCN4)cc3)cc2)c1 [Example 87, 3-{4-[4-((R)-1-Pyrrolidin-2-ylmethoxy)-phenoxy]-phenyl}-pyridine hydrochloride salt] | – |
| < 5 µM | < 5 µM | O=C(O)CCCN1CCC[C@@H]1COc1ccc(Oc2ccc(-c3cnco3)cc2)cc1 [Example 88, 4-{(R)-2-[4-(4-Oxazol-5-yl-phenoxy)-phenoxymethyl]-pyrrolidin-1-yl}-butyric acid] | – |
| < 5 µM | < 5 µM | c1ccc(COc2ccc(OC[C@H]3CCCN3)cc2)cc1 [Example 90, (R)-2-(4-Benzyloxy-phenoxymethyl)-pyrrolidine hydrogen chloride salt] | – |
| < 5 µM | < 5 µM | c1ccc2sc(Oc3ccc(OC[C@H]4CCCN4)cc3)nc2c1 [Example 100, (R)-2-[4-(Benzothiazol-2-yloxy)-phenoxymethyl]-pyrrolidine-Hydrogen chloride salt] | – |
| < 5 µM | < 5 µM | c1ccc2sc(Cc3ccc(OC[C@H]4CCCN4)cc3)nc2c1 [Example 104, 2-[4-((R)-1-Pyrrolidin-2-ylmethoxy)-benzyl]-benzothiazole-hydrogen chloride salt] | – |
| < 5 µM | < 5 µM | Brc1ccc(Cc2ccc(OC[C@H]3CCCN3)cc2)cc1 [Example 105, (R)-2-[4-(4-Bromo-benzyl)-phenoxymethyl]-pyrrolidine hydrogen chloride salt] | – |
| < 5 µM | < 5 µM | Ic1ccc(Cc2ccc(OC[C@H]3CCCN3)cc2)cc1 [Example 106, (R)-2-[4-(4-Iodo-benzyl)-phenoxymethyl]-pyrrolidine Hydrogen chloride salt] | – |
| < 5 µM | < 5 µM | c1csc(-c2ccc(Cc3ccc(OC[C@H]4CCCN4)cc3)cc2)c1 [Example 107, (R)-2-[4-(2-thiophen-benzyl)-phenoxymethyl]-pyrrolidine hydrogen chloride salt] | – |
| < 5 µM | < 5 µM | c1cc(-c2ccc(Cc3ccc(OC[C@H]4CCCN4)cc3)cc2)co1 [Example 108, (R)-2-[4-(3-Furan-benzyl)-phenoxymethyl]-pyrrolidine hydrogen chloride salt] | – |
| < 5 µM | < 5 µM | c1coc(-c2ccc(Cc3ccc(OC[C@H]4CCCN4)cc3)cc2)c1 [Example 109, (R)-2-[4-(2-Furan-benzyl)-phenoxymethyl]-pyrrolidine hydrogen chloride salt] | – |
| < 5 µM | 5 to 20 µM | Cc1ccc(-c2ccc(Cc3ccc(OC[C@H]4CCCN4)cc3)cc2)s1 [Example 110, (R)-2-{4-[4-(5-methyl-thiophen-2-yl)-benzyl]-phenoxymethyl}-pyrrolidine hydrogen chloroide salt] | – |
| < 5 µM | < 5 µM | Clc1ccc(-c2ccc(Cc3ccc(OC[C@H]4CCCN4)cc3)cc2)s1 [Example 111, (R)-2-{4-[4-(5-chloro-thiophen-2-yl)-benzyl]-phenoxymethyl}-pyrrolidine hydrogen chloroide salt] | – |
| 5 to 20 µM | < 5 µM | c1cc(-c2ccc(Oc3ccc(OC[C@H]4CCCN4)cc3)cc2)cs1 [Example 130, (R)-2-[4-(4-Thiophen-3-yl-phenoxy)-phenoxymethyl]-pyrrolidine-1-hydrogen chloride salt] | – |
| 5 to 20 µM | < 5 µM | c1cnn(-c2ccc(Oc3ccc(OC[C@H]4CCCN4)cc3)cc2)c1 [Example 133, 1-{4-[4-((R)-1-Pyrrolidin-2-ylmethoxy)-phenoxy]-phenyl}-1H-pyrazole, hydrogen chloride salt] | – |
| 5 to 20 µM | < 5 µM | O=C(O)CCCN1CCC[C@@H]1COc1ccc(Oc2ccc(-n3cccn3)cc2)cc1 [Example 134, 4-{(R)-2-[4-(4-Pyrazol-1-yl-phenoxy)-phenoxymethyl]-pyrrolidin-1-yl}-butyric acid] | – |
| 5 to 20 µM | 5 to 20 µM | c1ccc(CCc2ccc(OC[C@H]3CCCN3)cc2)cc1 [Example 135, (R)-2-(4-Phenethyl-phenoxymethyl)-pyrrolidine] | – |
| < 5 µM | < 5 µM | c1csc(-c2ccc(Oc3ccc(OC[C@H]4CCCN4)cc3)cc2)n1 [Example 146, 2-{4-[4-((R)-1-Pyrrolidin-2-ylmethoxy)-phenoxy]-phenyl}-thiazole hydrochloride salt] | – |

| Structure (SMILES) | IC50 [1, 3] | IC50 [2] | IC50 [1] |
| --- | --- | --- | --- |
| c1ccc(-c2ccc(Oc3ccc(OC[C@@H]4CCCCN4)cc3)cc2)cc1 [Example 53, (S)-2-[4-(Biphenyl-4-yloxy)-phenoxymethyl]-piperidine hydrochloride] | – | < 5 µM | < 5 µM |
| c1ccc(-c2ccc(Oc3ccc(OC[C@H]4CCCCN4)cc3)cc2)cc1 [Example 54, (R)-2-[4-(Biphenyl-4-yloxy)-phenoxymethyl]-piperidine hydrochloride] | – | < 5 µM | < 5 µM |
| O=C(O)CCCN1CCCC[C@H]1COc1ccc(Oc2ccc(Cl)cc2)cc1 [Example 61, 4-{(S)-2-[4-(4-Chloro-phenoxy)-phenoxymethyl]-piperidin-1-yl}-butyric acid hydrochloride] | – | < 5 µM | < 5 µM |
| O=C(O)CCCN1CCC[C@@H]1COc1ccc(Cc2ccc(-c3ccsc3)cc2)cc1 [Example 112, 4-{(R)-2-[4-(4-Thiophen-3-yl-benzyl)-phenoxymethyl]-pyrrolidin-1-yl}-butyric acid hydrogen chloride salt] | < 5 µM | < 5 µM | – |
| O=C(O)CCCN1CCC[C@@H]1COc1ccc(Cc2ccc(-c3cccs3)cc2)cc1 [Example 113, 4-{(R)-2-[4-(4-Thiophen-2-yl-benzyl)-phenoxymethyl]-pyrrolidin-1-yl}-butyric acid hydrogen chloride salt] | < 5 µM | < 5 µM | – |
